The record followed here is patent US20240269154A1, “CANNABIDIOL FOR USE IN THE TREATMENT OF PAIN RESULTING FROM AN INDOLEAMINE 2,3-DIOXYGENASE-1 (IDO1) RELATED DISEASE” (Assistance Publique - Hopitaux de Paris, priority 2021, published 2024).

Entries after “also recorded” stand apart in the source; their conditions may differ.

In this assay the test system is patients suffering from indolent systemic mastocytosis (ISM) or mast cell activation syndrome (MCAS) or having hypertryptasemia. Briefly: Numeric rating scale (NRS) pain score in 15 patients treated with CBD capsules. Conditions: for reduction of pain / average pain score (NRS): 15 patients; for reduction of pain: NRS; for average pain score (NRS): D0 average about 7.2. Type of assay: in vivo, human. As to the method:
Fifteen patients suffering from indolent systemic mastocytosis (ISM) or mast cell activation syndrome (MCAS) or having hypertryptasemia with no positive result from classic treatments were treated with a daily dose from 15 to 400 mg of cannabidiol (CBD) by capsule.
The pain was measured using numeric rating scale (NRS) pain score, between 0 (no pain) and 10 (worst pain imaginable).

The mark [1] stands for this setting: after one month of treatment (M1).
[2] abbreviates: after three months of treatment (M3).

`C=C(C)[C@@H]1CCC(C)=C[C@H]1c1c(O)cc(CCCCC)cc1O` [CBD, cannabidiol]: the reduction of pain entry runs as follows: (M1 versus D0) “about 2 points”; (M3 versus D0) “about 3 points”. The “average pain score (NRS)” value under setting [1] is given as 5.1 and the “average pain score (NRS)” value under setting [2] is recorded as 3.8. Besides, the “relief of pain observed” value is 13 of 15 under setting [1] and 14 of 15 under setting [2]. The pain treatment withdrawal result (individual patient, other pain treatment stopped under CBD) is “stop stelara; also recorded: stop NSAID; also recorded: stop nefopam; also recorded: stop memantine,; also recorded: stop opioids; also recorded: stop methadone,; also recorded: stop methadone; also recorded: stop ketamine; also recorded: stop amitriptyline”.
